A short description of data set [1]: MTT viability assay, L929. It counts as cell-based, murine. The settings on record: mouse, L929 fibroblasts, tested 1–500 µM.
The subject of data set [2] is primary colon adenocarcinoma (HT29). Nature of the data set: MTT viability assay, HT29. Type of data set: cell-based, human. The settings on record: for CC50: tested 1–500 µM.
Data set [3] deals with HT29 cells. In words: Migration (scratch) assay. It counts as cell-based, human. The settings on record: control T 155558.2, control T0 544366.45. Here is the method: The scratch test was performed to verify that the tested compound 3g could inhibit the formation of metastases by the HT29 cell line. The seeded HT29 cells were incubated until they formed a monolayer over the entire surface of the well. Then, a scratch test was performed by making a scratch in the monolayer and measuring its width—that is, To, amounting to 544,366.45 μm^2. Freshly prepared compounds were added to the HT29 cells at concentrations of 10, 25, 50, and 100 μM. Breeding plates were incubated for 24 h. The next day, scratch width was measured again using the ImageJ open-source platform. […] The lowest cellular overgrowth of HT29 culture occurred at the concentration of 100 μM for the compound. Compound 3g inhibited the migration of HT29 cells more strongly than the reference drugs, showing that it has the potential to inhibit metastasis. The width of the scratch after 24 h when no compound was applied to the cells was used as a control (T = 155,558.2 μm^2).
All cell lines were grown in 5% CO2 at 95% humidity and 37 °C, with both morphology and confluence assessed twice per week. When the confluence was greater than 70%, adherent cell lines were detached from the bottle surface with a TrypLE solution and then used in assays or reduced. The cells were collected into centrifuge tubes and centrifuged at 1000× g for 5 min at room temperature. The supernatant was removed to dry. The cell pellets were then resuspended in an appropriate medium. The cells were counted using a Bürker chamber and resuspended in 96-well plates to a cell density of 10,000 cells per well for MTT assay. For the rhodamine accumulation test and the detection of apoptosis assay, cells were seeded at a density of 30,000 per well. In the migration assay, cells were seeded at a density of 20,000 per well, and monolayer formation was awaited.
After seeding, HT29 cells were incubated until they formed a monolayer over the entire surface of the well. A scratch was made on the surface overgrown with cells, and then photomicrographs of the scratch were taken using the EVOS FL microscope. The freshly prepared compound 3g and the reference drugs were added at concentrations of 10, 25, 50, and 100 µM. Then, they were incubated for 24 h, and micrographs were performed at that time using the EVOS FL microscope. The scratch width was measured using the ImageJ open-source platform. The measurement of scratch width was also performed after 24 h without adding compounds.

A short description of data set [4]: MTT viability assay, NHDF. Type of data set: cell-based, human. Conditions: human, normal human dermal fibroblasts (NHDF), tested 1–500 µM. For orientation: Formazan colour is commonly taken as a measure of viable cells.

What is called CC50 is the concentration at which the toxic effect on the cells reaches its halfway point. Read a high CC50 as better tolerance by the cells. As to `Cc1noc(N)c1-c1nc2c(NCCCN(C)C)ncnc2o1` [Compound 3g, 2-(5-Amino-3-methylisoxazol-4-yl)-7-N-[3-(N,N-dimethylamino)propyl]aminooxazolo[5,4-d]pyrimidine], the cytotoxic concentration (CC50) in data set [1] came out at 83.7 ± 4.42 µM; in data set [2] (HT29, MTT), 58.4 ± 8.75 µM; in data set [2] (Homo sapiens, HT-29, HT29, MTT), 58.4 µM; in data set [4], 156 ± 15.5 µM. Besides, the “SI (selectivity index)” value in data set [2] (CC50 NHDF / CC50 HT29) was 2.662. Also, the “scratch width after 24 h, mean” value in data set [3] (10 μM) was 180844 μm^2; in data set [3] (25 μM), 218581.6 μm^2; in data set [3] (50 μM), 245687.8 μm^2; in data set [3] (100 μM) it was 314566.8 μm^2.

The record behind these values is paper PMC9569971, “New Oxazolo[5,4-d]pyrimidines as Potential Anticancer Agents: Their Design, Synthesis, and In Vitro Biological Activity Research” (International Journal of Molecular Sciences, 2022).
